This note sets out measurements from PubChem BioAssay (NCI).

Some test systems named below: LOX IMVI melanoma; CCRF-CEM leukemia; SF-295 CNS; SW-620 colon; ACHN renal; RPMI-8226 leukemia; OVCAR-8 ovarian; UACC-257 melanoma.
Common to all, as to test: inhibition of tumour cell growth, NCI panel, 48 h

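Growth conditions: 96-well plates. Treatment: test compound, 48 hours, 5 concentrations. Analysis: linear interpolation between bracketing concentrations; unreached endpoints set to highest concentration. GI50 = concentration required for 50% inhibition of growth. TGI: concentration producing complete growth inhibition.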

Turning to `OC(CNC1CCCC1)Cn1c2ccccc2c2ccccc21` (stereo not drawn), the GI50 with LOX IMVI melanoma was over 100 µM; with CCRF-CEM leukemia, over 100 µM; in the test on SF-295 CNS it was 23.7 µM; in the test with SW-620 colon, over 100 µM; in the test with ACHN renal, 39.6 µM; with RPMI-8226 leukemia, over 100 µM. For the same molecule, the results for the GI50 with OVCAR-8 ovarian and with UACC-257 melanoma were 27.6 µM and over 100 µM, respectively. Moreover, the TGI in the test with LOX IMVI melanoma is over 100 µM; with CCRF-CEM leukemia, over 100 µM; with SF-295 CNS, 73.5 µM; in the test on SW-620 colon, over 100 µM; in the test with ACHN renal, over 100 µM; with RPMI-8226 leukemia it was over 100 µM. Also, the TGI in the test with OVCAR-8 ovarian and in the test with UACC-257 melanoma was over 100 µM each time.
In the case of `COC(=O)[C@@]1(O)C[C@H]2O[C@]1(C)n1c3ccccc3c3c4c(c5c6ccccc6n2c5c31)C(=O)NC4`, the GI50 was 0.197 µM in the test on LOX IMVI melanoma; 0.321 µM in the test with CCRF-CEM leukemia; 0.661 µM in the test with SF-295 CNS; 0.147 µM in the test with SW-620 colon; 0.0368 µM in the test with ACHN renal; 0.0784 µM with RPMI-8226 leukemia. Further, the GI50 with OVCAR-8 ovarian is 0.589 µM; in the test with UACC-257 melanoma it was 0.527 µM. The TGI in the test with LOX IMVI melanoma stood at 1.21 µM; in the test on CCRF-CEM leukemia, 1.64 µM; in the test with SF-295 CNS, 2.31 µM; with SW-620 colon, 3.11 µM; with ACHN renal it was 3.07 µM; in the test on RPMI-8226 leukemia, 1.33 µM. Also, the TGI was 4.08 µM with OVCAR-8 ovarian and 3.33 µM in the test on UACC-257 melanoma.
`CCOC1C=CCCO1` (stereo not drawn): the TGI in the test on LOX IMVI melanoma, in the test with CCRF-CEM leukemia, with SF-295 CNS, with SW-620 colon, in the test on ACHN renal and with RPMI-8226 leukemia was over 100 µM throughout. Further, the TGI in the test with OVCAR-8 ovarian and in the test with UACC-257 melanoma was over 100 µM each time.
As for `C/C=C/C=C\C1OC(O)([C@H](CC)C(=O)NC/C=C/C=C(\C)[C@H](OC)C(C)C2OC(\C=C/C=C/C=C(\C)C(=O)c3c(O)ccn(C)c3=O)[C@H](O)[C@@H]2O)C(O)C(O)C1(C)C` (stereo partly drawn), the TGI with LOX IMVI melanoma, with CCRF-CEM leukemia, in the test with SF-295 CNS, in the test with SW-620 colon, in the test with ACHN renal and in the test on RPMI-8226 leukemia was over 100 µM in each case. Besides, the TGI in the test with OVCAR-8 ovarian and with UACC-257 melanoma was over 100 µM each time.
`COc1cccc2c(=O)c3c(sc12)c(NCCN(C)C)nc1ccccc13`: the GI50 in the test on LOX IMVI melanoma was 1.33 µM; in the test with CCRF-CEM leukemia, 1.34 µM; in the test with SF-295 CNS it was 1.65 µM; in the test on SW-620 colon it was 0.76 µM; in the test with ACHN renal, 1 µM; with RPMI-8226 leukemia, 1.36 µM. In addition, the values for the GI50 in the test with OVCAR-8 ovarian and with UACC-257 melanoma were 1.26 µM and 1.72 µM, respectively. The TGI amounted to 2.76 µM in the test on LOX IMVI melanoma; 2.97 µM in the test on CCRF-CEM leukemia; 3.42 µM in the test on SF-295 CNS; 2.3 µM in the test on SW-620 colon; 2.22 µM with ACHN renal; 3.17 µM with RPMI-8226 leukemia. Further, the TGI with OVCAR-8 ovarian was found to be 2.93 µM; in the test on UACC-257 melanoma, 3.5 µM.
Consider `CCCN(CCC)C(=O)[C@H](CC)[C@@H]1CC[C@@H](C)[C@@H]([C@H](C)[C@@H](O)[C@@H](C)C(=O)[C@H](CC)C2O[C@]3(C=C[C@@H](O)[C@]4(CC[C@@](C)([C@H]5CC[C@](O)(CC)[C@H](C)O5)O4)O3)[C@H](C)C[C@@H]2C)O1` (stereo partly drawn), for which the GI50 was 1.5 µM in the test with LOX IMVI melanoma; 2.78 µM in the test with CCRF-CEM leukemia; 2.45 µM in the test on SF-295 CNS; 3.23 µM in the test on SW-620 colon; 3.18 µM with ACHN renal; 1.77 µM with RPMI-8226 leukemia. Further, the GI50 in the test on OVCAR-8 ovarian was 3.5 µM; with UACC-257 melanoma, 2.84 µM. The TGI came to 3 µM with LOX IMVI melanoma; 8.83 µM in the test with CCRF-CEM leukemia; 8.91 µM in the test with SF-295 CNS; 10.6 µM in the test with SW-620 colon; 10.3 µM in the test with ACHN renal; 6.06 µM in the test with RPMI-8226 leukemia. Moreover, the TGI came out at 24.6 µM in the test on OVCAR-8 ovarian and 9.83 µM with UACC-257 melanoma.
With `CN(C)c1ccc(O)c2c1C[C@H]1C[C@H]3[C@H](N(C)C)C(=O)C(C(N)=O)=C(O)[C@@]3(O)C(=O)C1=C2O`, the GI50 with LOX IMVI melanoma was 3.64 µM; in the test with CCRF-CEM leukemia, 6.27 µM; with SF-295 CNS, 2.46 µM; with SW-620 colon, 5.84 µM; in the test with ACHN renal, 4.09 µM; in the test with RPMI-8226 leukemia, 4.28 µM. Also, the GI50 with OVCAR-8 ovarian is 5.11 µM; in the test on UACC-257 melanoma it was 8.99 µM. Also, the TGI in the test with LOX IMVI melanoma was 31.9 µM; in the test with CCRF-CEM leukemia, 65.9 µM; with SF-295 CNS, 7.99 µM; with SW-620 colon it was over 100 µM; in the test with ACHN renal, over 100 µM; in the test with RPMI-8226 leukemia, 31.1 µM. Besides, the TGI in the test on OVCAR-8 ovarian and with UACC-257 melanoma was over 100 µM in each case.
For the molecule `COc1ccc2nc(C)cc(Nc3ccccc3O)c2c1`, the GI50 was 18.5 µM in the test with LOX IMVI melanoma; 21.7 µM in the test with CCRF-CEM leukemia; 24.5 µM in the test with SF-295 CNS; 26.7 µM with SW-620 colon; 32.1 µM in the test on ACHN renal; 17.2 µM in the test on RPMI-8226 leukemia. The GI50 with OVCAR-8 ovarian was 24.8 µM; in the test with UACC-257 melanoma, 19 µM. For the same molecule, the TGI in the test on LOX IMVI melanoma was 39 µM; in the test with CCRF-CEM leukemia it was over 100 µM; in the test on SF-295 CNS it was over 100 µM; in the test on SW-620 colon, over 100 µM; in the test with ACHN renal, over 100 µM; in the test with RPMI-8226 leukemia, 51.4 µM. Besides, the TGI was 69.7 µM in the test with OVCAR-8 ovarian and 43.6 µM in the test with UACC-257 melanoma.
Turning to `CCOC(=O)C#Cc1c(CC(=O)OCC)nnn1[C@H]1O[C@@H](CO)[C@@H]2OC(C)(C)O[C@@H]21`, the GI50 in the test on LOX IMVI melanoma is 1.35 µM; in the test with CCRF-CEM leukemia, 2.04 µM; in the test with SF-295 CNS, 43.6 µM; in the test on SW-620 colon it was 1.88 µM; in the test on ACHN renal it was 1.97 µM; with RPMI-8226 leukemia it was 3.45 µM. Further, the results for the GI50 in the test with OVCAR-8 ovarian and in the test with UACC-257 melanoma were 5.48 µM and 4.47 µM, respectively. In addition, the TGI in the test on LOX IMVI melanoma was 2.97 µM; with CCRF-CEM leukemia it was 4.97 µM; with SF-295 CNS it was over 100 µM; in the test with SW-620 colon it was 3.78 µM; with ACHN renal it was 4.11 µM; in the test with RPMI-8226 leukemia, 9.06 µM. The TGI with OVCAR-8 ovarian stood at 18.2 µM; in the test with UACC-257 melanoma it was 12.7 µM.
